Assay results from patent US20130337564A1, “Treatment of Pluripotent Cells” (Janssen Biotech, Inc., priority 2012, published 2013).
Several values for one entry are separate records, joined by “and”; a condition that tells them apart may be missing. Equal entries are not always repeated.

How the values were obtained:
Type in all cases: cell-based
[1] = tested on: cells expressing pluripotency markers derived from human embryonic stem cells; test: MTS viability (toxicity) assay of cells expressing pluripotency markers; design: Raw data (duplicate), first replicate / Average: unit not given here; settings: for % Control / viability at 10 µM: viability of cells expressing pluripotency markers, relative to control; for viability at 10 µM: Homo sapiens, Embryonic stem cell
Procedure: Derivation and maintenance of cells expressing pluripotency makers was conducted as has been described in Example 2. Cells were grown in DMEM:F12 supplemented with 2% FCS (Invitrogen), 100 ng/ml Activin A, 20 ng/ml Wnt-3a, and 50 ng/ml IGF (R&D Biosystems). Cells were seeded at a density of 10,000 cells/cm^2 on Falcon polystyrene flasks and grown in monolayer culture at 37° C., 5% CO2, low oxygen. After reaching 60-70% confluence, cells were passed by washing the monolayer with PBS and incubating with TrypLE (Invitrogen) for 3-5 minutes to allow detachment and single cell dispersal.
Screening was conducted using test compounds from a proprietary library of small molecules selected for their ability to inhibit GSK-3B enzyme activity. Compounds from this library were made available as 1 mM stocks, in a 96-well plate format in 50 mM HEPES, 30% DMSO. For assay, cells expressing pluripotency markers were washed, counted, and plated in normal culture medium at a seeding density of 20,000 cells per well in 96-well clear-bottom, dark-well plates (Costar). This seeding density was previously determined to yield optimal monolayer formation in overnight culture. On the following day, culture medium was removed, cell monolayers were rinsed three times with PBS, and test compounds were added to the wells in 80 μl aliquots, each diluted into assay medium at a final assay concentration of 10 μM. On day 2 of the assay, medium was removed from each well and replaced with a fresh aliquot of test compounds diluted into assay medium. Assay medium on days 1 and 2 of culture consisted of DMEM:F12 supplemented with 0.5% FCS and 100 ng/ml Activin A. On days 3 and 4 of culture, medium was removed from each well and replaced with DMEM:F12 supplemented with 2% FCS and 100 ng/ml Activin A (no test compound). On day 4 of assay, 15 μl of MTS (Promega) was added to each well and plates were incubated at 37° C. for 1.5 to 4 hours prior to reading optical density at 490 nm on a SpectraMax (Molecular Devices) instrument. Statistical measures consisting of mean, standard deviation, and coefficient of variation were calculated for each duplicate set. Toxicity was calculated for each test well relative to a positive control (wells treated with Activin A and Wnt3a on days 1 and 2 of culture).
A larger proportion of the compounds have minimal or no measurable toxicity in this cell-based assay.
A small panel of select compounds was repeat tested over a narrow dose titration range, again using cells expressing pluripotency markers in a similar assay as described above.

[2] = tested on: Sox17 expression in human embryonic stem cells (H9 line); test: High content screening assay: Sox17 protein expression (differentiation); settings: for SOX-17 Expression Fold over Wnt 3a/AA control: total intensity normalised to Wnt 3a/AA control
Procedure: (§1) Maintenance of human embryonic stem cells (H9 line) was conducted as described in Example 1. Colonies of cells were maintained in an undifferentiated, pluripotent state with passage on average every four days. Passage was performed by exposing cell cultures to a solution of collagenase (1 mg/ml; Sigma-Aldrich) for 10 to 30 minutes at 37° C. followed by gentle scraping with a pipette tip to recover cell clusters. Clusters were allowed to sediment by gravity, followed by washing to remove residual collagenase. Cell clusters were split at a 1:3 ratio for routine maintenance culture or a 1:1 ratio for immediate assay. The human embryonic stem cell lines used were maintained at passage numbers less than passage 50 and routinely evaluated for normal karyotypic phenotype and absence of mycoplasma contamination.
(§2) Cell clusters used in the assay were evenly resuspended in normal culture medium and plated onto MATRIGEL-coated 96-well Packard VIEWPLATES (PerkinElmer) in volumes of 100 μA/well. MEF conditioned medium supplemented with 8 ng/ml bFGF was used for initial plating and recovery. Daily feeding was conducted by aspirating spent culture medium from each well and replacing with an equal volume of fresh medium. Plates were maintained at 37° C., 5% CO2 in a humidified box throughout the duration of assay.
(§3) Screening was conducted using test compounds from a proprietary library of small molecules selected for their ability to inhibit GSK-3B enzyme activity. Compounds from this library were made available as 1 mM stocks, in a 96-well plate format in 50 mM HEPES, 30% DMSO. Screening compounds were tested in triplicate or duplicate sets. Primary screening assays were initiated by aspirating culture medium from each well followed by three washes in PBS to remove residual growth factors and serum. Test volumes of 80 to 100 μl per well were added back containing DMEM:F12 base medium (Invitrogen) supplemented with 0.5% FCS (HyClone) and 100 ng/ml activin A (R&D Biosystems) plus 10 μM test compound. Positive control wells contained the same base medium, substituting 10-20 ng/ml Wnt3a (R&D Biosystems) for the test compound. Negative control wells contained base medium with 0.5% FCS and activin A alone (AA only) or alternatively, 0.5% FCS without activin A or Wnt3a (no treatment). Wells were aspirated and fed again with identical solutions on day 2 of assay. On days 3 and 4, all assay wells were aspirated and converted to DMEM:F12 supplemented with 2% FCS and 100 ng/ml activin A (without test compound or Wnt3a); parallel negative control wells were maintained in DMEM:F12 base medium with 2% FCS and activin A (AA only) or alternatively, 2% FCS without activin A (no treatment).
(§4) At the end of culture, cells in 96-well plates were fixed with 4% paraformaldehyde at room temperature for 20 minutes, washed three times with PBS, and then permeabilized with 0.5% Triton X-100 for 20 minutes at room temperature. Alternatively, cells were fixed with ice cold 70% ethanol overnight at −20° C., washed three times with PBS, and then permeabilized with Triton X-100 for 5 minutes at 4° C. After fixing and permeabilizing, cells were washed again three times with PBS and then blocked with 4% chicken serum (Invitrogen) in PBS for 30 minutes at room temperature. Primary antibodies (goat anti-human Sox17 and goat anti-human HNF-3beta; R&D Systems) were diluted 1:100 in 4% chicken serum and added to cells for one hour at room temperature. Alexa Fluor 488 conjugated secondary antibody (chicken anti-goat IgG; Molecular Probes) was diluted 1:200 in PBS and added after washing the cells three times with PBS. To counterstain nuclei, 5 mM Draq5 (Alexis Biochemicals) was added for five minutes at room temperature. Cells were washed once with PBS and left in […] PBS for imaging.
(§5) Cells were imaged using an IN Cell Analyzer 1000 (GE Healthcare) utilizing the 51008bs dichroic for cells stained with Draq5 and Alexa Fluor 488. […]

[3] = tested on: HNF-3beta expression in human embryonic stem cells (H9 line); test: High content screening assay: HNF-3beta protein expression (differentiation); settings: for HNF-3b Expression Fold over Wnt 3a/AA control: total intensity normalised to Wnt 3a/AA control
Procedure: as §1, §2, §3, §4, §5

[4] = tested on: human embryonic stem cells (H9 line); test: High content screening assay: cell number (proliferative response)
Procedure: as §1, §2, §3, §4, §5

[5] = tested on: human embryonic stem cells (H9 or H1 lines); test: Plate reader (MTS) proliferation assay; settings: plate reader raw signal, mean of replicate wells; proliferation of human embryonic stem cells
Procedure: Maintenance of human embryonic stem cells (H9 or H1 lines) was conducted as described in Example 1. Colonies of cells were maintained in an undifferentiated, pluripotent state with passage on average every four days. Passage was performed by exposing cell cultures to a solution of collagenase (1 mg/ml; Sigma-Aldrich) for 10 to 30 minutes at 37° C. followed by gentle scraping with a pipette tip to recover cell clusters. Clusters were allowed to sediment and washed to remove residual collagenase. Cell clusters were split at a ratio of 1:3 monolayer area for routine culture or a 1:1 ratio for immediate assay. The human embryonis stem cell lines used for these examples were maintained at passage numbers less than 50 and routinely evaluated for normal karyotypic phenotype as well as absence of mycoplasm contamination.
as §2, with “in” for “in the”, “into” for “onto”, “μl/well.” for “μA/well.”, “bFGF)” for “bFGF”, “C.” for “C., 5% CO2”, “box, 5% CO2” for “box”
Primary screening assays were initiated by aspirating culture medium from each well followed by three washes in PBS to remove residual growth factors and serum. Test volumes of 80-100 μl per well were added back containing DMEM:F12 base medium (Invitrogen) supplemented with 0.5% FCS (HyClone) and 100 ng/ml activin A (R&D Biosystems) and 10 μM test compound. Positive control wells contained the same medium substituting 10-20 ng/ml Wnt3a (R&D Biosystems). Negative control wells contained base medium with 0.5% FCS without activin A or Wnt3a. Screening compounds were tested in triplicate. Wells were aspirated and fed again with identical solutions on day 2 of the assay. On days 3 and 4, all assay wells were aspirated and converted to DMEM:F 12 supplemented with 2% FCS and 100 ng/ml activin A with the exception of negative control wells which were maintained in DMEM:F12 base medium with 2% FCS.
On day 4 of assay, 15-20 μl of MTS (Promega) was added to each well and plates were incubated at 37° C. for 1.5 to 4 hours. Densitometric readings at OD490 were determined using a Molecular Devices spectrophotometer plate reader. Average readings for replicate sets were calculated along with standard deviation and coefficient of variation. Experimental wells were compared to the Activin A/Wnt3a positive control to calculate a percent control value as a measure of proliferation.
Strong hits are defined as greater than or equal to 120% of control values; moderate hits are defined as falling within the interval of 60-120% of control values. A significant number of compounds induce a proliferative response in this assay.

[6] = MTS viability assay raw reading, replicate 1
[7] = MTS viability assay raw reading, replicate 2
[8] = average of duplicate MTS raw readings
[9] = 10 μM test compound with 100 ng/ml activin A on days 1-2, H9, total intensity by IN Cell Analyzer, strong and moderate hits
[10] = cell number in the wells analysed for HNF-3b expression
[11] = cell number in the wells analysed for HNF-3b expression, normalised to Wnt 3a/AA control
[12] = cell number in the wells analysed for SOX-17 expression
[13] = cell number in the wells analysed for SOX-17 expression, normalised to Wnt 3a/AA control

Compound	Raw data (duplicate), first replicate [1, 6]	Raw data (duplicate), second replicate [1, 7]	Average [1, 8]	% Control [1]	SOX-17 Expression Total Intensity [2]	SOX-17 Expression Fold over Wnt 3a/AA control [2]	HNF-3b Expression Total Intensity [3]	HNF-3b Expression Fold over Wnt 3a/AA control [3]	Proliferative Response Total cells [4, 10]	Proliferative Response Fold over Wnt 3a/AA control [4, 11]	Proliferative Response Total cells [4, 12]	Proliferative Response Fold over Wnt 3a/AA control [4, 13]	viability at 10 µM [1]	also measured
O=C1NC(=O)C2=C1c1cn(c3ncccc13)CCOCCOCCOCCn1cc2c2cccnc21 [Compound 2, 6,7,9,10,12,13,15,16-Octahydro-23H-5,26:17,22-di(metheno)dipyrido[2,3-k:3′,2′-q]pyrrolo[3,4-n][1,4,7,10,19]trioxadiazacyclohenicosine-23,25(24H)-dione]	0.785	0.790	0.788	94.0%	296920000	0.7921 fold	463525000	1.0087 fold	5679	1.125 fold	10963	1.376 fold		SOX17 Expression, Fold over Wnt 3a/AA control [2, 9]: 0.7921 Fold over Wnt 3a/AA control; HNF3β Expression, Fold over Wnt 3a/AA control [3, 9]: 1.0087 Fold over Wnt 3a/AA control; Proliferative Response Fold over Wnt 3a/AA control ([4]; 10 μM test compound with 100 ng/ml activin A on days 1-2, H9, total cell number by IN Cell Analyzer, strong and moderate hits): 1.3757 Fold over Wnt 3a/AA control and 1.1246 Fold over Wnt 3a/AA control
CN1CCCn2cc(c3ccccc32)C2=C(C(=O)NC2=O)c2cn(c3ccccc23)CCOCCOCC1 [Compound 3, 14-Methyl-6,7,9,10,12,13,14,15,16,17-decahydro-24H-5,27:18,23-di(metheno)dibenzo[l,r]pyrrolo[3,4-o][1,4,7,11,20]dioxatriazacyclodocosine-24,26(25H)-dione]	0.161	0.169	0.165	6.9%	162790000	0.4343 fold	189875000	0.4132 fold	2184	0.4324 fold	1766	0.2216 fold		
NCCCn1nc(C2=C(c3cn(-c4csc5ccccc45)c4ccccc34)C(=O)NC2=O)c2ccccc21 [Compound 4]	0.132	0.137	0.134		230965000		125125000		2776		2914		2.6%	fold induction at 10 µM ([2]; Homo sapiens, Embryonic stem cell, 10 μM test compound with 100 ng/ml activin A on days 1-2, H9, total intensity by IN Cell Analyzer, strong and moderate hits, read-out: SOX17 Expression, Fold over Wnt 3a/AA control): 0.616
O=C1NC(=O)C(c2nn(CCCO)c3ccccc23)=C1c1cn(-c2ccc3ccccc3c2)c2ncccc12 [Compound 19, 3-[1-(3-Hydroxypropyl)-1H-indazol-3-yl]-4-(1-naphthalen-2-yl-1H-pyrrolo[2,3-b]pyridin-3-yl)-1H-pyrrole-2,5-dione]							0						85.2%	
O=C1NC(=O)C(c2cn(CCCO)c3ncccc23)=C1c1cc[nH]c1 [Compound 242, 4-[1-(3-Hydroxypropyl)-1H-pyrrolo[2,3-b]pyridin-3-yl]-1H,1′H-3,3′-bipyrrole-2,5-dione]													71%	Average ([1]; MTS viability readout, average of duplicate raw data): 0.601; Raw data (duplicate), first replicate ([1]; MTS viability readout, raw value of replicate 1): 0.590; Raw data (duplicate), second replicate ([1]; MTS viability readout, raw value of replicate 2): 0.613; Average (of Raw Data) [5]: 0.1152
